Values of other authors as cited in patent publication US9943402B2, “Micropatterned intraocular implant” (InSight Innovations, LLC, priority 2008, dated 2018).

System: posterior capsule opacification (PCO)
Conditions: topical treatment after phacoemulsification

Row | SMILES | inhibition of PCO (in words)
1 | O=C(O)Cc1ccccc1Nc1c(Cl)cccc1Cl [diclofenac] | do not appear to inhibit PCO
2 | COc1ccc2c(c1)c(CC(=O)O)c(C)n2C(=O)c1ccc(Cl)cc1 [indomethacin] | do not appear to inhibit PCO
